Assay results published in ChEMBL document CHEMBL5096153, “Spirocyclic Scaffolds in Medicinal Chemistry” (J Med Chem, 2021).

Test system: Influenza A virus
Assay: Antiviral activity against drug-resistant Influenza A virus A/M2-V27A mutant assessed as viral growth inhibition
Type: functional, organism-based

Structure (SMILES) | IC50 [µM]
NC1CCC2(CCCC2)CC1 | 319
NC1CC[Si]2(CCCC2)CC1 | 96.3
